According to ChEMBL document CHEMBL1201862, “PubChem BioAssay data set” (2004):
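Assay format: 96-well plates, 48-hour exposure. Abbreviation: GI50, concentration required for 50% inhibition of growth.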 The source made the active and inactive calls. Cut-off read from the data, not from the text of the source: active = GI50 up to about 1.1 µM and inactive = higher.

Tests used:
Test in all cases: DTP human tumour cell line panel, 48 h
786-0 = system: 786-0
A498 = system: A498
A549 = system: A549
ACHN = system: ACHN
BT-549 = system: BT-549
CAKI-1 = system: CAKI-1
CCRF-CEM = system: CCRF-CEM
COLO 205 = system: COLO 205
DU-145 = system: DU-145
EKVX = system: EKVX
HCC 2998 = system: HCC 2998
HCT-116 = system: HCT-116
HCT-15 = system: HCT-15
HL-60 = system: HL-60
HOP-62 = system: HOP-62
HOP-92 = system: HOP-92
HT-29 = system: HT-29
Hs-578T = system: Hs-578T
IGROV-1 = system: IGROV-1
K562 = system: K562
KM12 = system: KM12
LOX IMVI = system: LOX IMVI
M14 = system: M14
MCF7 = system: MCF7
MDA-MB-231 = system: MDA-MB-231
MDA-MB-435 = system: MDA-MB-435
MOLT-4 = system: MOLT-4
Malme-3M = system: Malme-3M
NCI-H226 = system: NCI-H226
NCI-H23 = system: NCI-H23
NCI-H460 = system: NCI-H460
NCI-H522 = system: NCI-H522
NCI/ADR-RES = system: NCI/ADR-RES
OVCAR-3 = system: OVCAR-3
OVCAR-4 = system: OVCAR-4
OVCAR-5 = system: OVCAR-5
OVCAR-8 = system: OVCAR-8
PC-3 = system: PC-3
RPMI-8226 = system: RPMI-8226
RXF 393 = system: RXF 393
SF-268 = system: SF-268
SF-295 = system: SF-295
SF-539 = system: SF-539
SK-MEL-28 = system: SK-MEL-28
SK-MEL-2 = system: SK-MEL-2
SK-MEL-5 = system: SK-MEL-5
SK-OV-3 = system: SK-OV-3
SN12C = system: SN12C
SNB-19 = system: SNB-19
SNB-75 = system: SNB-75
SR = system: SR
SW-620 = system: SW-620
T47D = system: T47D
TK-10 = system: TK-10
U-251 = system: U-251
UACC-257 = system: UACC-257
UACC-62 = system: UACC-62
UO-31 = system: UO-31
MDA-N = system: MDA-N

Measured: GI50

CC(C)=CCC[C@@H](C)c1c2nc3ccccc3sc-2c(C)c(=O)c1O
2.32 µM: HCT-15
inactive: 786-0 4.9 µM | A498 9.84 µM | A549 5.62 µM | ACHN 2.65 µM | BT-549 31 µM | CAKI-1 2.82 µM | CCRF-CEM 2.67 µM | COLO 205 18.8 µM | DU-145 17.5 µM | EKVX 7.62 µM | HCC 2998 9.66 µM | HCT-116 3.37 µM | HL-60 1.51 µM | HOP-62 4.36 µM | HOP-92 18.9 µM | HT-29 2.79 µM | Hs-578T 9.66 µM | IGROV-1 3.44 µM | K562 8.22 µM | KM12 4.6 µM | LOX IMVI 4.94 µM | M14 4.75 µM | MCF7 8.3 µM | MDA-MB-231 15.1 µM | MDA-MB-435 10.6 µM | MOLT-4 2.32 µM | Malme-3M 2.93 µM | NCI-H226 3.74 µM | NCI-H23 5.93 µM | NCI-H460 2.22 µM | NCI-H522 1.82 µM | NCI/ADR-RES 2.05 µM | OVCAR-3 9.35 µM | OVCAR-4 6.43 µM | OVCAR-5 16.7 µM | OVCAR-8 2.94 µM | PC-3 8.34 µM | RPMI-8226 4.11 µM | RXF 393 9.35 µM | SF-268 3.99 µM | SF-295 3.78 µM | SF-539 3.01 µM | SK-MEL-28 14.6 µM | SK-MEL-2 9.71 µM | SK-MEL-5 3.1 µM | SK-OV-3 7.74 µM | SN12C 5.74 µM | SNB-19 38.5 µM | SNB-75 5.53 µM | SR 2.23 µM | SW-620 4.86 µM | T47D 3.45 µM | TK-10 12.8 µM | U-251 6.38 µM | UACC-257 14.3 µM | UACC-62 4.99 µM | UO-31 3.55 µM

O=C(CCC(NC(=O)OCc1ccccc1)C(=O)OCc1ccccc1)Nc1ccc(OCc2ccccc2)cc1 (stereo unspecified)
13.1 µM: HCT-15
inactive: 786-0 12.6 µM | A498 > 10 µM | A549 19.3 µM | ACHN 29.6 µM | BT-549 > 10 µM | CAKI-1 > 31.6 µM | CCRF-CEM 21.8 µM | COLO 205 25.8 µM | DU-145 > 31.6 µM | EKVX > 31.6 µM | HCC 2998 > 31.6 µM | HCT-116 11.4 µM | HL-60 > 31.6 µM | HOP-62 > 78.7 µM | HOP-92 > 31.6 µM | HT-29 26.6 µM | Hs-578T 18.3 µM | IGROV-1 > 31.6 µM | K562 27.2 µM | KM12 > 31.6 µM | LOX IMVI > 31.6 µM | M14 > 75.7 µM | MCF7 13 µM | MDA-MB-231 15.3 µM | MDA-MB-435 17 µM | MOLT-4 24.6 µM | Malme-3M > 31.6 µM | NCI-H226 > 31.6 µM | NCI-H23 16.3 µM | NCI-H460 15.6 µM | NCI-H522 > 100 µM | NCI/ADR-RES 17.5 µM | OVCAR-3 > 84.1 µM | OVCAR-4 25.2 µM | OVCAR-5 > 100 µM | OVCAR-8 14.1 µM | PC-3 13.2 µM | RPMI-8226 > 10 µM | RXF 393 28.3 µM | SF-268 26.4 µM | SF-295 > 31.6 µM | SF-539 > 31.6 µM | SK-MEL-28 > 31.6 µM | SK-MEL-2 > 10 µM | SK-MEL-5 > 10 µM | SK-OV-3 > 31.6 µM | SN12C > 31.6 µM | SNB-19 21.7 µM | SNB-75 > 31.6 µM | SR 27.3 µM | SW-620 25.7 µM | T47D 18.8 µM | TK-10 > 31.6 µM | U-251 17.1 µM | UACC-257 > 31.6 µM | UACC-62 > 31.6 µM | UO-31 > 10 µM

C/C(=N\N=C(/S)N1CC2CCC(CC2)C1)c1ccncn1
inactive: SK-MEL-2 1.19 µM
< 0.01 µM: HCT-15
active: 786-0 0.0103 µM | A498 0.291 µM | A549 < 0.01 µM | ACHN < 0.01 µM | BT-549 0.0512 µM | CAKI-1 < 0.01 µM | CCRF-CEM < 0.01 µM | COLO 205 < 0.01 µM | DU-145 0.309 µM | EKVX < 0.01 µM | HCT-116 < 0.01 µM | HL-60 < 0.01 µM | HOP-62 0.108 µM | HT-29 < 0.01 µM | Hs-578T 0.914 µM | IGROV-1 < 0.01 µM | K562 < 0.01 µM | KM12 < 0.01 µM | LOX IMVI < 0.01 µM | M14 < 0.01 µM | MCF7 < 0.01 µM | MDA-MB-435 0.0703 µM | MDA-N 0.189 µM | MOLT-4 < 0.01 µM | Malme-3M < 0.01 µM | NCI-H226 < 0.01 µM | NCI-H23 < 0.01 µM | NCI-H460 < 0.01 µM | NCI/ADR-RES < 0.01 µM | OVCAR-3 < 0.01 µM | OVCAR-4 0.741 µM | OVCAR-5 0.213 µM | OVCAR-8 < 0.01 µM | PC-3 < 0.01 µM | RPMI-8226 < 0.01 µM | RXF 393 0.794 µM | SF-268 0.133 µM | SF-295 < 0.0179 µM | SF-539 < 0.01 µM | SK-MEL-28 0.863 µM | SK-MEL-5 < 0.01 µM | SK-OV-3 < 0.01 µM | SN12C 0.0152 µM | SNB-19 0.198 µM | SNB-75 0.221 µM | SR < 0.01 µM | SW-620 < 0.01 µM | T47D < 0.01 µM | TK-10 < 0.01 µM | U-251 < 0.01 µM | UACC-257 < 0.01 µM | UACC-62 < 0.01 µM | UO-31 < 0.01 µM
